In ChEMBL document CHEMBL4811276, “WITHDRAWN: Discovery of indoline derivatives as anticancer agents via inhibition of tubulin polymerization” (Bioorg Med Chem Lett, 2021):
The source made the active and inactive calls. The rule behind the calls is not given here.

Experiments:
MGC-803 = assay: Antiproliferative activity against human MGC-803 cells assessed as inhibition of cell proliferation measured after 48 hrs by CCK8 assay; assay type: functional, cell-based; details: MGC-803, 48 h
KYSE-30 = assay: Antiproliferative activity against human KYSE-30 cells assessed as inhibition of cell proliferation measured after 48 hrs by CCK8 assay; assay type: functional, cell-based; details: KYSE-30, 48 h
A549 = assay: Antiproliferative activity against human A549 cells assessed as inhibition of cell proliferation measured after 48 hrs by CCK8 assay; assay type: functional, cell-based; details: A549, 48 h
Tubulin (Homo sapiens) = Tubulin (Homo sapiens) (UniProt P68371+Q9H4B7+P0DPH7+P68366+Q13509+Q71U36+P04350+Q3ZCM7+P07437+P68363+Q9BQE3+Q6PEY2+Q13885+Q9BVA1+Q9BUF5); assay: Inhibition of tubulin polymerization in human KYSE-450 cells assessed by disorganised spindle at 1.25 to 2.5 uM measured after 48 hrs by immunoflourescence assay relative to colchicine; assay type: cell-based; details: dose 1.25-2.5 µM
KYSE-450 [1] = assay: Antiproliferative activity against human KYSE-450 cells assessed reduced cell viability at 0.313 to 2.5 uM; assay type: functional, cell-based; details: dose 0.313-2.5 µM, time 20-40 hrs, TDE = time-dependent effect
KYSE-450 [2] = assay: Induction of apoptosis in human KYSE-450 cells assessed by concentrated nucleus at 0.313 to 2.5 uM measured after 48 hrs by DAPI staining based microscopic method; assay type: functional, cell-based; details: dose 0.313-2.5 µM
KYSE-450 [3] = assay: Induction of apoptosis in human KYSE-450 cells assessed by round cells at 0.313 to 2.5 uM measured after 48 hrs by DAPI staining based microscopic method; assay type: functional, cell-based; details: dose 0.313-2.5 µM
Tubulin = assay: Inhibition of tubulin polymerization in human KYSE-450 cells measured by EBI competition assay relative to colchicine; assay type: cell-based
KYSE-510 = assay: Antiproliferative activity against human KYSE-510 cells assessed as inhibition of cell proliferation measured after 48 hrs by CCK8 assay; assay type: functional, cell-based; details: KYSE-510, 48 h
KYSE-450 [4] = assay: Antiproliferative activity against human KYSE-450 cells assessed as inhibition of colony formation at 0.188 uM measured after 7 days by colony formation assay; assay type: functional, cell-based; details: time 7.0 day
KYSE-450 [5] = assay: Antiproliferative activity against human KYSE-450 cells assessed as inhibition of cell proliferation measured after 48 hrs by CCK8 assay; assay type: functional, cell-based; details: KYSE-450, 48 h
ECa-109 cell line = assay: Antiproliferative activity against human Eca-109 cells assessed as inhibition of cell proliferation measured after 48 hrs by CCK8 assay; assay type: functional, cell-based; details: ECa-109, 48 h
KYSE-450 [6] = assay: Antiproliferative activity against human KYSE-450 cells assessed reduced cell viability at 1 to 80 uM measured after 48 hrs; assay type: functional, cell-based; details: dose 1-80 µM
KYSE-450 [7] = assay: Induction of apoptosis in human KYSE-450 cells assessed by smaller nucleus at 0.313 to 2.5 uM measured after 48 hrs by DAPI staining based microscopic method; assay type: functional, cell-based; details: dose 0.313-2.5 µM
KYSE-450 [8] = assay: Antiproliferative activity against human KYSE-450 cells assessed reduced cell viability measured after 20 to 60 hrs; assay type: functional, cell-based; details: dose 0.313-2.5 µM, time 20-60 hrs

| IC50 (MGC-803) | IC50 (A549) | SMILES | IC50 (KYSE-30) | further results |
| --- | --- | --- | --- | --- |
| > 40 µM | 38.9 µM | Cc1ccc(C(=O)N2CCc3cc(Br)ccc32)cc1 | > 40 µM |  |
| 4.3 µM | 21.7 µM | COc1cc(C(=O)N2CCCCc3ccccc32)cc(OC)c1OC | 16.6 µM |  |
| 33.6 µM | > 40 µM | O=C(c1ccc(Br)cc1)N1CCc2cc(Br)ccc21 | 26.8 µM |  |
| 7.57 µM | 22 µM | COc1cc(C(=O)N2CCc3ccccc32)cc(OC)c1OC | 7.72 µM |  |
| > 40 µM | > 40 µM | O=C(Cc1ccc(F)cc1)N1CCc2cc(Br)ccc21 | > 40 µM |  |
| 35.8 µM | > 40 µM | O=C(Cc1ccc(Br)cc1)N1CCc2cc(Br)ccc21 | 20.7 µM |  |
| 38.2 µM | > 40 µM | Cc1ccc(CC(=O)N2CCc3cc(Br)ccc32)cc1 | 33.2 µM |  |
| 1.84 µM | 6.82 µM | COc1cc(C(=O)N2CCc3cc(Br)ccc32)cc(OC)c1OC | 1.61 µM | inhibition (Tubulin (Homo sapiens)): Active; Activity (KYSE-450 [1]): Tde; Activity (KYSE-450 [2]): Active; Activity (KYSE-450 [3]): Active; IC50 (Tubulin): 3.4 µM; IC50 (KYSE-510): 2.08 µM; Activity (KYSE-450 [4]): Active; IC50 (KYSE-450 [5]): 1.49 µM; IC50 (ECa-109 cell line): 2.24 µM; Activity (KYSE-450 [6]): Active; Activity (KYSE-450 [7]): Active; Activity (KYSE-450 [8]): Dose-Dependent Effect |
| 28.5 µM | > 40 µM | O=C(c1ccccc1)N1CCc2cc(Br)ccc21 | 20.3 µM |  |
| 28.7 µM | 24.8 µM | COc1ccc(CC(=O)N2CCc3cc(Br)ccc32)cc1 | > 40 µM |  |
| 8.32 µM | 17.7 µM | COc1cc(C(=O)N2CCc3cc([N+](=O)[O-])ccc32)cc(OC)c1OC | 6.55 µM |  |
| 22.4 µM | 24.8 µM | COc1cc(CC(=O)N2CCc3cc(Br)ccc32)cc(OC)c1OC | 20.2 µM |  |
| 4.41 µM | 23.7 µM | COc1cc(C(=O)N2CCCc3ccccc32)cc(OC)c1OC | 6.72 µM |  |
| 24.1 µM | 18.9 µM | O=C(c1ccc(F)cc1)N1CCc2cc(Br)ccc21 | 22.1 µM |  |
| 18.8 µM | 21.1 µM | COc1ccc(C(=O)N2CCc3cc(Br)ccc32)cc1 | 18.9 µM |  |
| 82.8 µM | 28.5 µM | O=C(Cc1ccccc1)N1CCc2cc(Br)ccc21 | > 40 µM |  |

| SMILES | IC50 (MGC-803) | IC50 (A549) | IC50 (KYSE-30) | further results |
| --- | --- | --- | --- | --- |
| COc1cc2c(c(OC)c1OC)-c1ccc(OC)c(=O)cc1[C@@H](NC(C)=O)CC2 [COLCHICINE] | 1.07 µM | 0.19 µM | 0.28 µM |  |
